Experiments:
[1] = system: wild-type C. elegans; parameters: method as in previously published data; settings: earlier larval stages, longer exposure times; ref previously published data; cited from earlier work
[2] = system: C. elegans complex II mutant RP2702; assay: Scoring of developmental rates, L1 exposed 5 days; type: in vivo, Caenorhabditis elegans
Text: (§1) Dead or mostly immobile worms, arrested at the L1 stage, received a score of 1. Populations with severely delayed development were scored as 2. More developmentally advanced, but still obviously delayed worms were given the score of 3. Adult worms that produce a noticeably lower number of progeny received a score of 4. Healthy worms that reproduce normally (i.e., hundreds of eggs and larvae are present) were scored as 5 (see Figure C for representative images). In a typical, correctly prepared experiment, vehicle-treated populations should receive a score of 5, while worms treated with ivermectin (positive control) should receive a score of 1. […]

[3] = system: C. elegans complex II mutant RP2700; assay: Scoring of developmental rates, L1 exposed 5 days; type: in vivo, Caenorhabditis elegans
Text: as §1

[4] = system: C. elegans complex II mutant RP2699; assay: Scoring of developmental rates, L1 exposed 5 days; type: in vivo, Caenorhabditis elegans
Text: as §1

[5] = system: C. elegans wild-type and MCII mutants; assay: Recovery of pretreated worms on WMicrotracker ONE; type: in vivo, Caenorhabditis elegans; settings: 5 or 10 μM for 72 h, then wash-out and recovery
Experimental: (§2) Briefly, for evaluation of the acute effect of the compounds, age-synchronized young adults of each strain, kept in S complete medium supplemented with E. coli OP50 (3 mg/mL, fresh weight), were transferred onto microtiter plates (96-well, U bottom), and their initial motility was measured for 30 min. […] Afterward, the compounds were washed away, and worms, supplemented with fresh liquid media and food, were distributed onto 96-well plates and allowed to recover. Their activity was measured using WMicrotracker ONE at the indicated time points.
C. elegans L1 larvae were exposed to 5 or 10 μM of the compounds for 72 h, after which the compounds were washed away, and the recovery of the nematodes was evaluated using WMicrotracker.

[6] = system: mitochondrial membrane potential of C. elegans young adults; assay: Mitochondrial membrane potential measurement; type: in vivo, Caenorhabditis elegans; settings: 100 μM; 24 h
Experimental: After 24 h, the compounds were washed away. Then, the mitochondrial membrane potential was measured using a specialized fluorescent dye (kit MAK147, Sigma-Aldrich). The kit was used according to the manufacturer’s instructions with modified incubation temperature and time (20 °C, 4 h) to account for the fact that living intact worms were used instead of cell cultures. , Dyed worms (approximately 200 per well) were distributed onto a black 96-well plate, and the fluorescence was measured using a Tecan Infinite 200 Pro plate reader.
Determining the mechanism of action of compounds is always challenging; however, the nature of their effect, as well as the structural similarity to compounds with known properties, can provide useful insights. One of our hypotheses was that the compounds might interfere with energy production. We based this assumption on the behavior of compound-treated worms (delayed development, lower fecundity, and relatively rapid decrease in motility rates but not necessarily death). Impaired mitochondrial function would be accompanied by a decrease in mitochondrial membrane potential (MMP).

[7] = system: C. elegans wild-type and MCII mutant strains; assay: Scoring of developmental rates, comparison of strains; type: in vivo, Caenorhabditis elegans; settings: L1 exposed 5 days
Text: Dead or mostly immobile worms, arrested at the L1 stage, received a score of 1. Populations with severely delayed development were scored as 2. More developmentally advanced, but still obviously delayed worms were given the score of 3. Adult worms that produce a noticeably lower number of progeny received a score of 4. Healthy worms that reproduce normally (i.e., hundreds of eggs and larvae are present) were scored as 5 (see Figure C for representative images). In a typical, correctly prepared experiment, vehicle-treated populations should receive a score of 5, while worms treated with ivermectin (positive control) should receive a score of 1.
We attribute this discrepancy to methodological differences: in previous studies, earlier larval stages, longer exposure times, and different evaluation methods, possibly more sensitive than WMicrotracker, were used.

[8] = system: C. elegans N2; assay: Scoring of developmental rates, L1 exposed 5 days; type: in vivo, Caenorhabditis elegans
Text: as §1

[9] = system: C. elegans MCII mutant RP2700; assay: Acute motility of young adults on WMicrotracker ONE; type: in vivo, Caenorhabditis elegans; settings: 100 μM; 24 h
Experimental: as §2, with “The effect of compounds on C. elegans N2 and SDH mutant strains was measured in a similar manner. Briefly,” for “Briefly,”
(§3) To experimentally support this promising initial finding, we tested the effect of i-19 against several C. elegans MCII mutant strains. These nematodes carry point mutations that result in amino acid changes in regions of subunits SDHC and SDHD that contribute to the formation of the ubiquinone-binding pocket, thereby influencing its shape and the ability of inhibitors to interact with the protein. […] The compounds were tested in multiple setups. At first, young adults were exposed to higher doses (100, 50, and 10 μM) of the compounds for up to 48 h, and changes in motility were evaluated using WMicrotracker. For both compounds, we observed a less pronounced decrease in movement rates of MCII mutants compared to wild-type worms, in both a dose- and time-dependent manner (Figure ).

[10] = system: C. elegans MCII mutant RP2702; assay: as above; type: in vivo, Caenorhabditis elegans; settings: 100 μM; 24 h
Experimental: as §2, with “The effect of compounds on C. elegans N2 and SDH mutant strains was measured in a similar manner. Briefly,” for “Briefly,”
as §3

[11] = system: C. elegans MCII mutant RP2699; assay: as above; type: in vivo, Caenorhabditis elegans; settings: 100 μM; 24 h
Experimental: as §2, with “The effect of compounds on C. elegans N2 and SDH mutant strains was measured in a similar manner. Briefly,” for “Briefly,”
as §3

[12] = system: C. elegans wild-type N2; assay: as above; type: in vivo, Caenorhabditis elegans; settings: 100 μM; 24 h
Experimental: as §2, with “The effect of compounds on C. elegans N2 and SDH mutant strains was measured in a similar manner. Briefly,” for “Briefly,”
as §3

## O=C(NCCc1ncc(C(F)(F)F)cc1Cl)c1ccccc1C(F)(F)F [fluopyram, reference compound]
[1]
  concentrations that strongly affect wild-type C. elegans: below 1 μM
[2]; 0.012 µM
  mean score (1-5): 5
[2]; 0.024 µM
  mean score (1-5): 5
[2]; 0.049 µM
  mean score (1-5): 5
[2]; 0.195 µM
  mean score (1-5): 4.889
[2]; 0.391 µM
  mean score (1-5): 4.667
[2]; 0.781 µM
  mean score (1-5): 4.111
[2]; 1.563 µM
  mean score (1-5): 3.556
[2]; 3.125 µM
  mean score (1-5): 3.111
[2]; 6.25 µM
  mean score (1-5): 2.333
[2]; 12.5 µM
  mean score (1-5): 1
[2]; 25 µM
  mean score (1-5): 1
[2]; 50 µM
  mean score (1-5): 1
[2]; 100 µM
  mean score (1-5): 1
[3]; 0.012 µM
  mean score (1-5): 5
[3]; 0.024 µM
  mean score (1-5): 5
[3]; 0.049 µM
  mean score (1-5): 5
[3]; 0.195 µM
  mean score (1-5): 4.778
[3]; 0.391 µM
  mean score (1-5): 4.444
[3]; 0.781 µM
  mean score (1-5): 3.556
[3]; 1.563 µM
  mean score (1-5): 3.667
[3]; 3.125 µM
  mean score (1-5): 2.444
[3]; 6.25 µM
  mean score (1-5): 1.222
[3]; 12.5 µM
  mean score (1-5): 1
[3]; 25 µM
  mean score (1-5): 1.333
[3]; 50 µM
  mean score (1-5): 1
[3]; 100 µM
  mean score (1-5): 1
[4]; 0.012 µM
  mean score (1-5): 4.667
[4]; 0.024 µM
  mean score (1-5): 4.444
[4]; 0.049 µM
  mean score (1-5): 4
[4]; 0.195 µM
  mean score (1-5): 4.556
[4]; 0.391 µM
  mean score (1-5): 4.444
[4]; 0.781 µM
  mean score (1-5): 3.889
[4]; 1.563 µM
  mean score (1-5): 3.111
[4]; 3.125 µM
  mean score (1-5): 3.333
[4]; 6.25 µM
  mean score (1-5): 1.222
[4]; 12.5 µM
  mean score (1-5): 1
[4]; 25 µM
  mean score (1-5): 1
[4]; 50 µM
  mean score (1-5): 1.222
[4]; 100 µM
  mean score (1-5): 1
[5]
  resistance of MCII mutants compared to wild-type: increased resistance of the MCII mutants
[6]
  MMP signal lower than in vehicle-treated control animals: ~85%
[7]
  concentrations at which all strains were severely affected: > 6.25 µM
[8]; 0.012 µM
  mean score (1-5): 4.667
[8]; 0.024 µM
  mean score (1-5): 4.333
[8]; 0.049 µM
  mean score (1-5): 3.667
[8]; 0.195 µM
  mean score (1-5): 2.778
[8]; 0.391 µM
  mean score (1-5): 2
[8]; 0.781 µM
  mean score (1-5): 1
[8]; 1.563 µM
  mean score (1-5): 1
[8]; 3.125 µM
  mean score (1-5): 1
[8]; 6.25 µM
  mean score (1-5): 1
[8]; 12.5 µM
  mean score (1-5): 1
[8]; 25 µM
  mean score (1-5): 1
[8]; 50 µM
  mean score (1-5): 1
[8]; 100 µM
  mean score (1-5): 1
[9]
  decrease of mean activity counts: 16%
[10]
  decrease of mean activity counts: 28%
[11]
  decrease of mean activity counts: 53%
[12]
  decrease of mean activity counts: 60%
